Data from patent publication US12622974B2, “Siderophore-dihydrofolate reductase inhibitor conjugate and application thereof” (priority 2020, dated 2026).
Converted amounts (≈) assume the structure as drawn. *1 amine or outer side, *2 acyl side, *3 side chain or, on linkers, in order; H or OH if unused. Where a SMILES comes first, the peptide text is derived from it. [ ]: non-standard residue; d: D form. The star is where a group is joined. DAMPA = CN(Cc1cnc2nc(N)nc(N)c2n1)c1ccc(C(=O)*)cc1; Orn(N5-OH,N5-Ac) = CC(=O)N(O)CCC[C@H](N)C(=O)O; d(γGlu) = O=C(O)[C@@H](CCC(=O)[*:2])N[*:1]; Ethylenediamine = C(CN[*:2])N[*:1]

Experiments:
[1] = test system: clinical Streptococcus pneumoniae; experiment: MIC determination on Streptococcus pneumoniae by the microdilution broth method; assay type: cell-based; conditions: MH broth II with horse blood and 2,2-bipyridine, 16-18 hours; for MIC against Streptococcus pneumoniae 180918016-S27: clinical strain 180918016-S27; for MIC against Streptococcus pneumoniae 180918017-S28: clinical strain 180918017-S28
Experimental: The minimum inhibitory concentration (MIC) determination was performed in accordance with the standards of the American Association for Clinical and Laboratory Standards (CLSIM07). The MIC determination on Streptococcus pneumoniae was carried out by the microdilution broth method as follows. First, the compound to be tested was dissolved in water to prepare a high-concentration original solution, and then the compound original solution was sequentially diluted by 2 folds, a total of 10 times, to prepare 11 samples of 10× working solution. Then the gradient dilutions of the compound were transferred to a 96-well round bottom plate, the first to eleventh wells contained 10 μL of the 11 samples of 10× working solution prepared above, respectively, and 10 μL of water was added to the twelfth well as a solvent control.

[2] = Cytotoxicity test, MTT colorimetric method, 293T; assay type: cell-based; conditions: human
Experimental: (§1) The cytotoxicity test was carried out with the MTT colorimetric method. 5×10^3 cells in a logarithmic growth phase were inoculated in each well of a 96-well plate, and incubated overnight at 37° C. in an incubator (5% CO2). Then, different concentrations of compounds were added and the incubation further continued for 72 hours. Finally, 10 μL of MTT solution was added to each well and he incubation further continued for 4 hours. Then, the culture medium in each well was carefully aspirated. 100 μL of dimethyl sulfoxide was added to each well, and shaken at low speed for 10 minutes on a shaker to fully dissolve crystals. The absorbance of each well was measured at OD490 nm of the enzyme-linked immunometric meter. Three parallel measurements were designed for each group, in order to calculate the standard deviation. Cell survival rate=(compound-treated OD value−blank control OD value)/(normal control OD value−blank control OD value)*100%
(§2) The toxicity of each compound was tested by measuring the half inhibitory concentrations (IC50) with respect to human normal hepatocytes (L02), human umbilical vein endothelial cells (HUVEC) and human renal epithelial cells (293T), respectively.

[3] = test system: human normal hepatocytes, human umbilical vein endothelial cells and human renal epithelial cells; experiment: Cytotoxicity test, overall statement across the three normal human cell types; assay type: cell-based; conditions: L02, HUVEC and 293T; compared with methotrexate
Experimental: as §1, §2

[4] = Cytotoxicity test, MTT colorimetric method, HUVEC; assay type: cell-based; conditions: human
Experimental: as §1, §2

[5] = Cytotoxicity test, MTT colorimetric method, L02; assay type: cell-based; conditions: human
Experimental: as §1, §2

Enterococcus = conditions: cited from earlier work
Streptococcus pneumoniae = conditions: background statement; cited from earlier work

SMILES	MIC against Streptococcus pneumoniae 180918016-S27 [1]	MIC against Streptococcus pneumoniae 180918017-S28 [1]	IC50 at 72 h [2]	Toxicity to normal human cells (in words) [3]	IC50 at 72 h [4]	IC50 at 72 h [5]	IC50 at 72 h ([2]; 293T cells (human renal epithelial cells), 293T cells, MTT, 72 hours, read-out: Cytotoxicity IC50 293T)	IC50 at 72 h ([4]; HUVEC (human umbilical vein endothelial cells), HUVEC cells, MTT, 72 hours, read-out: Cytotoxicity IC50 HUVEC)	MIC against Enterococcus (Enterococcus)	MIC against Streptococcus pneumoniae (Streptococcus pneumoniae)	IC50 at 72 h ([5]; L02 cells (human normal hepatocytes), L02 cells, MTT, 72 hours, read-out: Cytotoxicity IC50 L02)
CC(=O)N(O)CCC[C@H](NC(=O)[C@H](CCCN(O)C(C)=O)NC(=O)[C@@H](N)CCCN(O)C(C)=O)C(=O)NCCCCCNC(=O)CC[C@@H](NC(=O)c1ccc(N(C)Cc2cnc3nc(N)nc(N)c3n2)cc1)C(=O)O [3-4b]	0.0625	<0.0078	8.82 ± 0.08 µM	least toxicity	31 ± 3.18 µM	34.6 ± 14.5 µM					
CC(=O)N(O)CCC[C@H](NC(=O)[C@H](CCCN(O)C(C)=O)NC(=O)[C@@H](N)CCCN(O)C(C)=O)C(=O)NCCOCCOCCNC(=O)CC[C@@H](NC(=O)c1ccc(N(C)Cc2cnc3nc(N)nc(N)c3n2)cc1)C(=O)O [3-4c]	<0.0078	<0.0078	2.66 ± 0.01 µM		4.52 ± 0.21 µM	5.46 ± 2.18 µM					
CC(=O)N(O)CCC[C@H](NC(=O)[C@H](CCCN(O)C(C)=O)NC(=O)[C@@H](N)CCCN(O)C(C)=O)C(=O)N[C@@H](CO)C(=O)NCCNC(=O)CC[C@@H](NC(=O)c1ccc(N(C)Cc2cnc3nc(N)nc(N)c3n2)cc1)C(=O)O [3-4f] (H-[Orn(N5-OH,N5-Ac)][Orn(N5-OH,N5-Ac)][Orn(N5-OH,N5-Ac)]S-{Ethylenediamine-d(γGlu)-DAMPA})	<0.0078	<0.0078	3.93 ± 0.03 µM		19.2 ± 0.54 µM	14.7 ± 1.7 µM					
CC(=O)N(O)CCC[C@H](NC(=O)[C@H](CCCN(O)C(C)=O)NC(=O)[C@@H](N)CCCN(O)C(C)=O)C(=O)NCCNC(=O)[C@H](CO)NC(=O)[C@H](CO)NC(=O)CC[C@@H](NC(=O)c1ccc(N(C)Cc2cnc3nc(N)nc(N)c3n2)cc1)C(=O)O [3-4g]	<0.0078	<0.0078	5.38 ± 0.65 µM	least toxicity	18.4 ± 1.82 µM	27 ± 2.88 µM					
CC(=O)N(O)CCC[C@H](NC(=O)[C@H](CCCN(O)C(C)=O)NC(=O)[C@@H](N)CCCN(O)C(C)=O)C(=O)NCCNC(=O)[C@H](CCCCN)NC(=O)CC[C@@H](NC(=O)c1ccc(N(C)Cc2cnc3nc(N)nc(N)c3n2)cc1)C(=O)O [3-4h]			10.6 ± 1.34 µM	least toxicity	16.6 ± 2 µM	34.5 ± 4.01 µM					
CC(=O)N(O)CCCC[C@H](NC(=O)[C@H](CCCCN(O)C(C)=O)NC(=O)[C@@H](N)CCCCN(O)C(C)=O)C(=O)NCCOCCOCCNC(=O)CC[C@H](NC(=O)c1ccc(N(C)Cc2cnc3nc(N)nc(N)c3n2)cc1)C(=O)O [3-4v]	<0.0078	<0.0078									
CCC(=O)N(O)CCCC[C@H](NC(=O)[C@H](CCCCN(O)C(=O)CC)NC(=O)[C@@H](N)CCCCN(O)C(=O)CC)C(=O)NCCOCCOCCNC(=O)CC[C@H](NC(=O)c1ccc(N(C)Cc2cnc3nc(N)nc(N)c3n2)cc1)C(=O)O [3-4x]	<0.0078	<0.0078									
CN(Cc1cnc2nc(N)nc(N)c2n1)c1ccc(C(=O)N[C@@H](CCC(=O)O)C(=O)O)cc1 [Methotrexate, reference compound]	0.125	0.03125					0.01 µM	< 0.0781 µM	4 µM (≈ 1.82 µg/mL)	0.5 µM (≈ 0.227 µg/mL)	0.01 µM
CN[C@H](CC(C)C)C(=O)N[C@H]1C(=O)N[C@@H](CC(N)=O)C(=O)N[C@H]2C(=O)N[C@H]3C(=O)N[C@H](C(=O)N[C@H](C(=O)O)c4cc(O)cc(O)c4-c4cc3ccc4O)[C@H](O)c3ccc(c(Cl)c3)Oc3cc2cc(c3O[C@@H]2O[C@H](CO)[C@@H](O)[C@H](O)[C@H]2O[C@H]2C[C@](C)(N)[C@H](O)[C@H](C)O2)Oc2ccc(cc2Cl)[C@H]1O [Vancomycin, reference compound]	0.25	0.125									
